The record followed here is patent US12583861B2, “Derivatives of imidazo[4,5-d]pyridazine, their preparation and their therapeutic application” (SANOFI, priority 2021, dated 2026).

Counter-ions that a name gives are not always drawn.

Assay [1] addresses T1, human TLR7 (Homo sapiens, UniProt Q9NYK1).
T1 construct: host or cells: HEK293 (HEK-Blue hTLR7)
T1 sequence (Q9NYK1 27-1049): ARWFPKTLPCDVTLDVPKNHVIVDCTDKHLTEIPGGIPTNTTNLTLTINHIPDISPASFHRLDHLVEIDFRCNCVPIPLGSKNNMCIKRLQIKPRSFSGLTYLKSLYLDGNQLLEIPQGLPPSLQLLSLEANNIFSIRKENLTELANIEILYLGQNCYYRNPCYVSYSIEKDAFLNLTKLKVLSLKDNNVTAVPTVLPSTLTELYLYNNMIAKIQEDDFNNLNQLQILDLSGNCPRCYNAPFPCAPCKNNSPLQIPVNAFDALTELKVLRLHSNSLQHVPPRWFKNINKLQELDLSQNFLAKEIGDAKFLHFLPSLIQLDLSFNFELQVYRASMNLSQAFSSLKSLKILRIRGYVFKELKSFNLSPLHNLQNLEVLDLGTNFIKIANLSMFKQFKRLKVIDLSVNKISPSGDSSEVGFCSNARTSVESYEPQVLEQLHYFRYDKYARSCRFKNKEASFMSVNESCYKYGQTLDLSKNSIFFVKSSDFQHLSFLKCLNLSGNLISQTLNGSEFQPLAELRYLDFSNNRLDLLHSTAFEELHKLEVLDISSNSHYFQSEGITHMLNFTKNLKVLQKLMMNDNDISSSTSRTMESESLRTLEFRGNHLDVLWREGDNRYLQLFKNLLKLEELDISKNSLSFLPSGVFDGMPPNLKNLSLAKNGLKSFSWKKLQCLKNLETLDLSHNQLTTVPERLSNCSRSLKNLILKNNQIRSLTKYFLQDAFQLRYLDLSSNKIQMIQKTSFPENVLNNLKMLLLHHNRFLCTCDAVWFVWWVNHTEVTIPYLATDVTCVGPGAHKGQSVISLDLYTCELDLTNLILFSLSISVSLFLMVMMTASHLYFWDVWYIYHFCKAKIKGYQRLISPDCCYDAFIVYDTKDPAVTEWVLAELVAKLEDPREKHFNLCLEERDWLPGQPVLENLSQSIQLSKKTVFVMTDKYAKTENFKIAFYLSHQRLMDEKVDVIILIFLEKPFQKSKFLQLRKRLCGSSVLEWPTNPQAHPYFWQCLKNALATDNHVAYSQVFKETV
As to the kind of experiment: HEK-Blue hTLR7 reporter cell assay (SEAP, NF-kB/AP-1) for stimulation of human TLR7. It counts as cell-based. Conditions: HEK-Blue hTLR7 cells; for EC50: 24 h incubation, SEAP readout, read-out: TLR7_EC50. The procedure, abridged: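 Activity expressed as EC50 for half-maximal SEAP induction. Compounds, serially diluted 3-fold from 20 to 0.01 μM, were incubated 24 h at 37 °C, 5% CO2 with HEK-Blue hTLR7 reporter cells (3.10E4/well, plated 18–24 h earlier); supernatant developed with QUANTI-Blue.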

In assay [2] the target is T2, human TLR8 (Homo sapiens, UniProt Q9NR97).
T2 construct: host or cells: HEK293 (HEK-Blue hTLR8)
T2 sequence (Q9NR97 27-1041): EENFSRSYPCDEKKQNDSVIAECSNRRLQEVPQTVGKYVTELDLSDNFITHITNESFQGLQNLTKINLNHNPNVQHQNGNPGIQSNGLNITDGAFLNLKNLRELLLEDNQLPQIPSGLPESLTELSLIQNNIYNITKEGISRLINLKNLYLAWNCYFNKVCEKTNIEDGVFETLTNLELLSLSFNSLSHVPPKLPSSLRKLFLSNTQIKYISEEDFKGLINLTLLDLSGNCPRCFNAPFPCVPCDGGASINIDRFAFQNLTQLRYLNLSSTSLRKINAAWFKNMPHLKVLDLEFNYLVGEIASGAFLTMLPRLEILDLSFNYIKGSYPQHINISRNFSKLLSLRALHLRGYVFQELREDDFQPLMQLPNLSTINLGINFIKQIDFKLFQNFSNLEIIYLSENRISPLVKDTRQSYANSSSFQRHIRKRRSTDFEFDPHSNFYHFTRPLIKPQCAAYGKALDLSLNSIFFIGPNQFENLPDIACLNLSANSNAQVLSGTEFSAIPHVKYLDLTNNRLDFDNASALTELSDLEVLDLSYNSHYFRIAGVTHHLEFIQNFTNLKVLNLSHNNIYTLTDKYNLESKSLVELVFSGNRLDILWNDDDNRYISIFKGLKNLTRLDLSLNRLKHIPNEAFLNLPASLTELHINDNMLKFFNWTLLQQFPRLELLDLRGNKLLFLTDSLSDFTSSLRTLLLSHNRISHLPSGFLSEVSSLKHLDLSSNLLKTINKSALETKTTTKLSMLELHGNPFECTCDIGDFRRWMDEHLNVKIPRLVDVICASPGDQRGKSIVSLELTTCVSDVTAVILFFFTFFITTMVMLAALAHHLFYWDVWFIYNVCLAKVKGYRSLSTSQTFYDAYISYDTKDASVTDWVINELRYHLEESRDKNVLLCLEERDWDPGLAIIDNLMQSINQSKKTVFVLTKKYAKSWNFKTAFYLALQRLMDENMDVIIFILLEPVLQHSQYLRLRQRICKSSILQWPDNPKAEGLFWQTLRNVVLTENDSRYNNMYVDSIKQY
As to the kind of experiment: HEK-Blue hTLR8 reporter cell assay (SEAP, NF-kB/AP-1) for stimulation of human TLR8. It counts as cell-based. Conditions: HEK-Blue hTLR8 cells; for activation at 20 µM: 24 h, at 20000 nM; for EC50: 24 h incubation, SEAP readout, read-out: TLR8_EC50. The gist of the method: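 Stimulation is quantified as secreted alkaline phosphatase in supernatant using QUANTI-Blue™ substrate. Reporter HEK293 line co-transfected with hTLR8 and SEAP under an IFN-β minimal promoter with five NF-κB/AP-1 sites; 3.10E4 cells/well, 18 to 24 h pre-culture at 37° C. before compounds.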

Take `CCCCc1nc2c(N)nnc(NCc3ccc(CN4CCN(C)CC4)cc3)c2n1C` [Compound 91, 2-butyl-1-methyl-N7-(4-((4-methylpiperazin-1-yl)methyl)benzyl)-1H-imidazo[4,5-d]pyridazine-4,7-diamine]: the activation at 20 µM stood at 45% in assay [1] (24 h, at 20000 nM) and 10% in assay [2].
For the compound `CCCCc1nc2c(N)nnc(OC(C)C)c2n1CC(CO)CO` [Compound 157, 2-[(7-amino-2-butyl-4-isopropoxy-imidazo[4,5-d]pyridazin-3-yl)methyl]propane-1,3-diol; hydrochloride], the EC50 came to 531 nM in assay [1] and 7 nM in assay [2].
With `CCCCc1nc2c(N)nnc(-c3ccccc3)c2n1Cc1ccc(OC)cc1` [Compound 92, 2-butyl-1-(4-methoxybenzyl)-7-phenyl-1H-imidazo[4,5-d]pyridazin-4-amine], the EC50 in assay [1] was 7970 nM. In addition, in assay [2], the activation at 20 µM came to 15%.
On to `CCCCc1nc2c(N)nnc(OC(C)C)c2n1Cc1ccccc1` [Compound 80, 1-benzyl-2-butyl-7-isopropoxy-1H-imidazo[4,5-d]pyridazin-4-amine hydrochloride], for which the EC50 is 169 nM in assay [1] and above 20000 nM in assay [2].
On the same counts, the results for `CCCCc1nc2c(N)nnc(/C=C/C(C)C)c2n1C[C@H]1CC[C@H](N)CC1` [Compound 139, 1-(((1R,4R)-4-aminocyclohexyl)methyl)-2-butyl-7-((E)-3-methylbut-1-en-1-yl)-1H-imidazo[4,5-d]pyridazin-4-amine] are 370 nM and above 20000 nM.
On the same counts, the results for `CCCCc1nc2c(N)nnc(OC(C)C)c2n1CCN1CCNCC1` [Compound 79, 2-butyl-7-isopropoxy-1-(2-(piperazin-1-yl)ethyl)-1H-imidazo[4,5-d]pyridazin-4-amine] are 9710 nM and above 20000 nM.
Take `CCCCc1nc2c(N)nnc(OC(C)C)c2n1Cc1cccnc1` [Compound 74, 2-butyl-7-isopropoxy-1-(pyridin-3-ylmethyl)-1H-imidazo[4,5-d]pyridazin-4-amine]: the EC50 in assay [1] came to 586 nM; in assay [2], 17900 nM.
Take `CCCCc1nc2c(N)nnc(OCCC)c2n1Cc1ccc(OC)cc1` [Compound 5, 2-butyl-1-(4-methoxybenzyl)-7-propoxy-1H-imidazo[4,5-d]pyridazin-4-amine]: the results for the EC50 in assay [1] and in assay [2] were 145 nM and above 20000 nM, respectively.
Regarding `CCCCc1nc2c(N)nnc(O[C@H]3CCOC3)c2n1Cc1ccc(OC)cc1` [Compound 54, (S)-2-butyl-1-(4-methoxybenzyl)-7-((tetrahydrofuran-3-yl)oxy)-1H-imidazo[4,5-d]pyridazin-4-amine], the EC50 in assay [1] is 610 nM; in assay [2], above 20000 nM.
For `CCCCc1nc2c(N)nnc(OC(C)C)c2n1Cc1ccc(CNCCOCCOCCOC)cc1` [Compound 120, 1-(4-(5,8,11-trioxa-2-azadodecyl)benzyl)-2-butyl-7-isopropoxy-1H-imidazo[4,5-d]pyridazin-4-amine] the same measures were 133 nM and 14400 nM.
For `CCCCc1nc2c(N)nnc(OC(C)C)c2n1Cc1cccc(CNC2CS(=O)(=O)C2)c1` [Compound 129, 3-((3-((4-amino-2-butyl-7-isopropoxy-1H-imidazo[4,5-d]pyridazin-1-yl)methyl)benzyl)amino)thietane 1,1-dioxide] the same measures were 1550 nM and 6260 nM.
For the compound `CCCCc1nc2c(N)nnc(C3=CCCCC3)c2n1Cc1ccc(OC)cc1` [Compound 66, 2-butyl-7-(cyclohex-1-en-1-yl)-1-(4-methoxybenzyl)-1H-imidazo[4,5-d]pyridazin-4-amine], the values for the EC50 in assay [1] and in assay [2] were 2880 nM and above 20000 nM, respectively.
On the same counts, the results for `CCCCc1nc2c(N)nnc(OC(C)C)c2n1Cc1cccc(CNC(C)C)c1` [Compound 128, 2-butyl-7-isopropoxy-1-(3-((isopropylamino)methyl)benzyl)-1H-imidazo[4,5-d]pyridazin-4-amine dihydrochloride salt] are 5980 nM and above 20000 nM.
For `CCCCc1nc2c(N)nnc(OC(C)C)c2n1CC1CCCCC1` [Compound 81, 2-butyl-1-(cyclohexylmethyl)-7-isopropoxy-1H-imidazo[4,5-d]pyridazin-4-amine hydrochloride], the EC50 in assay [1] is 117 nM; in assay [2], above 20000 nM.
For `CCCCC(=O)NCc1ccc(Cn2c(CCCC)nc3c(N)nnc(OC(C)C)c32)cc1` [Compound 30, N-(4-((4-amino-2-butyl-7-isopropoxy-1H-imidazo[4,5-d]pyridazin-1-yl)methyl)benzyl)pentanamide] the same measures were 161 nM and above 20000 nM.
For `CCCCc1nc2c(N)nnc(CC(C)C)c2n1Cc1ccc(OC)cc1` [Compound 61, 2-butyl-7-isobutyl-1-(4-methoxybenzyl)-1H-imidazo[4,5-d]pyridazin-4-amine] the same measures were 1180 nM and above 20000 nM.
On the same counts, the results for `CCCSc1nc2c(N)nnc(OC(C)C)c2n1Cc1ccc(CN)cc1` [Compound 161, 3-[[4-(aminomethyl)phenyl]methyl]-4-isopropoxy-2-propylsulfanyl-imidazo[4,5-d]pyridazin-7-amine] are 205 nM and 398 nM.
For the compound `CCCCc1nc2c(N)nnc(OC(C)C)c2n1Cc1ccc(CN(C(C)=O)C2CS(=O)(=O)C2)cc1` [Compound 38, N-(4-((4-amino-2-butyl-7-isopropoxy-1H-imidazo[4,5-d]pyridazin-1-yl)methyl)benzyl)-N-(1,1-dioxidothietan-3-yl)acetamide], the EC50 came out at 345 nM in assay [1] and 14700 nM in assay [2].
On the same counts, the results for `CCCCc1nc2c(N)nnc(-c3ccsc3)c2n1Cc1ccc(OC)cc1` [Compound 62, 2-butyl-1-(4-methoxybenzyl)-7-(thiophen-3-yl)-1H-imidazo[4,5-d]pyridazin-4-amine] are 771 nM and above 20000 nM.
On the same counts, the results for `CCCCc1nc2c(N)nnc(NC)c2n1Cc1ccc(OC)cc1` [Compound 53, 2-butyl-1-(4-methoxybenzyl)-N7-methyl-1H-imidazo[4,5-d]pyridazine-4,7-diamine] are 775 nM and above 20000 nM.
